Consider seven molecules from DBAASP.

What all share (assay): ≥ marks a high value that may be exact or a test limit, other limits are often not marked, values filed in µg/mL are converted to µM
Experiment [1] relates to Candida albicans NCTC 3179.
Experiment [2] relates to Escherichia coli ATCC 25922.
In experiment [3] the test system is Staphylococcus aureus ATCC 25923.
Experiment [4] has as its system Escherichia coli BL21.
The test system of experiment [5] is Pseudomonas aeruginosa PAO1.
Experiment [6] deals with Pseudomonas syringae.
Experiment [7] has as its system Streptococcus pyogenes GAS M1T1.
The test system of experiment [8] is Xanthomonas axonopodis pv. phaseoli ATCC 9563.
Experiment [9] deals with Acinetobacter baumannii ATCC 15308.
Experiment [10] deals with Citrobacter sp.
The test system of experiment [11] is Enterobacter cloacae.
For experiment [12], the system named is Klebsiella pneumoniae.
Experiment [13] has as its system Pseudomonas aeruginosa ATCC 15442.
Experiment [14] deals with Staphylococcus aureus.
Experiment [15] concerns Streptococcus pneumoniae.
Experiment [16] concerns Bacillus subtilis ATCC 6633.
The subject of experiment [17] is Candida albicans ATCC 10231.
The subject of experiment [18] is Candida parapsilosis ATCC 22019.
Experiment [19] deals with Cryptococcus neoformans.
Experiment [20] has as its system Escherichia coli ATCC 9637.
In experiment [21] the test system is Klebsiella pneumoniae ATCC 27736.
In experiment [22] the test system is Pseudomonas aeruginosa ATCC BAA-427.
The test system of experiment [23] is Staphylococcus aureus ATCC 29213.
Experiment [24] relates to Staphylococcus aureus ATCC 33592.
Experiment [25] has as its system Staphylococcus aureus ATCC 700698.
The subject of experiment [26] is Staphylococcus aureus ATCC 700699.
Experiment [27] relates to Staphylococcus aureus ATCC BAA-44.
Experiment [28] deals with Escherichia coli KpC+001812446.
Experiment [29] deals with Klebsiella pneumoniae ATCC 13883.
Experiment [30] concerns Klebsiella pneumoniae KpC+001825971.

Converted amounts (≈) assume the structure as drawn. “And” between values parts separate entries of the source, which are not always exact repeats. Equal entries are not always repeated.

A word on the MIC: it is the smallest concentration in the dilution series that meets the test's criterion for growth inhibition. For the molecule `CC[C@H](C)[C@H](NC(=O)[C@@H](NC(=O)[C@H](Cc1ccccc1)NC(=O)CNC(=O)[C@@H](NC(=O)[C@H](CC(N)=O)NC(=O)[C@H](C)N)C(C)C)C(C)C)C(=O)N[C@@H](CCC(N)=O)C(=O)N[C@@H](CC(C)C)C(=O)N[C@@H](CCC(N)=O)C(=O)N[C@@H](C)C(=O)N[C@@H](CCCN=C(N)N)C(=O)N[C@@H](CC(C)C)C(=O)N[C@@H](CCCN=C(N)N)C(=O)NCC(=O)N[C@@H](Cc1ccccc1)C(=O)N[C@@H](CC(C)C)C(=O)N[C@H](C(=O)N[C@@H](CCCN=C(N)N)C(=O)N[C@@H](CCC(N)=O)C(=O)N[C@@H](CCCCN)C(=O)N[C@@H](Cc1ccccc1)C(=O)N[C@@H](C)C(=O)O)C(C)C` [ANVGFVIQLQARLRGFLVRQKFA], the MIC is no less than 95 µM in [1], 1.71 µM (≈ 4.5 µg/mL) in experiment [2] and 1.71 µM (≈ 4.5 µg/mL) in [3].
In the case of `CC[C@H](C)[C@H](NC(=O)[C@H](CCCCN)NC(=O)[C@H](CC(N)=O)NC(=O)[C@H](CCCCN)NC(=O)[C@H](CC(C)C)NC(=O)[C@H](Cc1ccc(O)cc1)NC(=O)[C@H](CCC(N)=O)NC(=O)[C@H](CCCN=C(N)N)NC(=O)[C@@H](NC(=O)[C@@H](NC(=O)[C@H](CCCCN)NC(=O)[C@H](CCCCN)NC(=O)[C@H](Cc1c[nH]c2ccccc12)NC(=O)[C@H](C)N)[C@@H](C)O)[C@@H](C)CC)C(=O)N[C@@H](CCCCN)C(=O)N[C@@H](CCCCN)C(=O)N[C@@H](CCCCN)C(=O)NCC(=O)N[C@@H](CCCN=C(N)N)C(=O)N[C@@H](CCCCN)C(=O)N[C@@H](C)C(=O)N[C@H](C(=O)N[C@H](C(=O)N[C@@H](C)C(=O)N[C@@H](Cc1c[nH]c2ccccc12)C(=O)O)[C@@H](C)CC)C(C)C` [AWKKTIRQYLKNKIKKKGRKAVIAW], the MIC in [4] amounted to 8 µM (≈ 24.5 µg/mL); in experiment [5], 10 µM (≈ 30.6 µg/mL); in [6], 8 µM (≈ 24.5 µg/mL); in experiment [7] it was 8 µM (≈ 24.5 µg/mL); in [8] it was 1 µM (≈ 3.06 µg/mL).
Take `CC[C@H](C)[C@H](NC(=O)[C@H](CCCCN)NC(=O)[C@H](CC(N)=O)NC(=O)[C@H](CCCCN)NC(=O)[C@H](CC(C)C)NC(=O)[C@H](Cc1ccc(O)cc1)NC(=O)[C@H](CCC(N)=O)NC(=O)[C@H](CCCN=C(N)N)NC(=O)[C@@H](NC(=O)[C@@H](NC(=O)[C@H](CCCCN)NC(=O)[C@H](CCCCN)NC(=O)[C@H](Cc1c[nH]c2ccccc12)NC(=O)[C@H](C)N)[C@@H](C)O)[C@@H](C)CC)C(=O)N[C@@H](CCCCN)C(=O)N[C@@H](CCCCN)C(=O)N[C@@H](CCCCN)C(=O)N[C@@H](Cc1c[nH]c2ccccc12)C(=O)N[C@@H](CCCN=C(N)N)C(=O)N[C@@H](CCCCN)C(=O)N[C@@H](C)C(=O)N[C@H](C(=O)N[C@H](C(=O)N[C@@H](C)C(=O)N[C@@H](Cc1c[nH]c2ccccc12)C(=O)O)[C@@H](C)CC)C(C)C` [AWKKTIRQYLKNKIKKKWRKAVIAW]: the MIC in [4] is 4 µM (≈ 12.7 µg/mL); in experiment [6], 8 µM (≈ 25.5 µg/mL); in [7], 8 µM (≈ 25.5 µg/mL); in experiment [8], 1 µM (≈ 3.19 µg/mL).
For the molecule `CC[C@H](C)[C@H](NC(=O)[C@H](CCSC)NC(=O)[C@H](C)NC(=O)[C@@H]1CCCN1C(=O)[C@@H](NC(=O)[C@@H]1CCCN1C(=O)[C@H](CCCCN)NC(=O)[C@@H](NC(=O)[C@H](CC(C)C)NC(=O)CNC(=O)CNC(=O)[C@H](CC(C)C)NC(=O)[C@@H](N)Cc1ccccc1)[C@@H](C)CC)C(C)C)C(=O)N[C@H]1CSSC[C@@H](C(=O)O)NC(=O)[C@H](CCCCN)NC(=O)[C@H](CCCCN)NC(=O)[C@H](CCCN=C(N)N)NC(=O)[C@H](C(C)C)NC(=O)[C@H](C)NC1=O` [FLGGLIKPVPAMICAVRKKC], the minimum inhibitory concentration (MIC) in experiment [9] was no less than 117 µM; in experiment [10], no less than 117 µM; in experiment [11], no less than 117 µM; in experiment [2], greater than 117 µM; in [12], greater than 117 µM; in experiment [13] it was no less than 117 µM. Further, the MIC in experiment [3] was greater than 117 µM; in experiment [14], greater than 117 µM; in experiment [15] it was no less than 117 µM.
Turning to `CC[C@H](C)[C@H](NC(=O)[C@H](CC(C)C)NC(=O)CNC(=O)CNC(=O)[C@H](CC(C)C)NC(=O)[C@@H](N)Cc1ccccc1)C(=O)N[C@@H](CCCCN)C(=O)N[C@@H](Cc1c[nH]c2ccccc12)C(=O)N[C@@H](CCCCN)C(=O)N[C@@H](Cc1c[nH]c2ccccc12)C(=O)N1CCC[C@H]1C(=O)N[C@@H](Cc1c[nH]c2ccccc12)C(=O)N[C@@H](Cc1c[nH]c2ccccc12)C(=O)N1CCC[C@H]1C(=O)N[C@@H](Cc1c[nH]c2ccccc12)C(=O)N[C@@H](CCCN=C(N)N)C(=O)N[C@@H](CCCN=C(N)N)C(N)=O` [FLGGLIKWKWPWWPWRR], the MIC in experiment [9] is 13.5 µM (≈ 31.2 µg/mL); in experiment [10] it was no less than 108 µM; in experiment [11], no less than 108 µM; in experiment [2], 3.38 µM (≈ 7.81 µg/mL); in experiment [12] it was greater than 108 µM; in experiment [13] it was 13.5 µM (≈ 31.2 µg/mL). Moreover, the MIC in experiment [3], in experiment [14] and in experiment [15] was 3.38 µM (≈ 7.81 µg/mL) in each case.
On to `CC[C@H](C)[C@H](NC(=O)[C@H](CCCN=C(N)N)NC(=O)CNC(=O)[C@H](CC(C)C)NC(=O)[C@H](Cc1ccccc1)NC(=O)[C@H](CCCCN)NC(=O)[C@H](CO)NC(=O)[C@H](Cc1ccccc1)NC(=O)[C@H](Cc1c[nH]c2ccccc12)NC(=O)[C@H](CCCCN)NC(=O)[C@@H](NC(=O)[C@@H](N)Cc1ccccc1)C(C)C)C(=O)N[C@@H](CC(C)C)C(N)=O` [FVKWFSKFLGRIL], for which the MIC in experiment [16] came out at 7.6 µM (≈ 12.5 µg/mL); in experiment [17], 6 µM (≈ 9.84 µg/mL); in [18], 6 µM (≈ 9.84 µg/mL); in experiment [19] it was 3 µM (≈ 4.92 µg/mL); in experiment [2], 3.8 µM (≈ 6.23 µg/mL); in experiment [20], 6.25 µM (≈ 10.3 µg/mL). Also, the MIC in experiment [21] was 7.6 µM (≈ 12.5 µg/mL); in experiment [22], 6.8 µM (≈ 11.2 µg/mL); in [3], 3.8 µM and 7.6 µM; in [23] it was 2 µM (≈ 3.28 µg/mL); in experiment [24], 2 µM (≈ 3.28 µg/mL); in [25], 2 µM (≈ 3.28 µg/mL). The MIC in experiment [26] and in [27] was 2 µM (≈ 3.28 µg/mL) in each case.
On to `CC[C@H](C)[C@H](NC(=O)[C@H](CCCCN)NC(=O)[C@H](CCCCN)NC(=O)[C@H](Cc1ccccc1)NC(=O)[C@H](CC(C)C)NC(=O)[C@H](CCCCN)NC(=O)[C@H](Cc1c[nH]c2ccccc12)NC(=O)[C@H](CCCCN)NC(=O)[C@H](Cc1cnc[nH]1)NC(=O)CNC(=O)CN)C(=O)NCC(=O)N[C@@H](C)C(=O)N[C@H](C(=O)N[C@@H](CC(C)C)C(=O)N[C@@H](CCCCN)C(=O)N[C@H](C(=O)N[C@@H](CC(C)C)C(=O)O)C(C)C)C(C)C` [GGHKWKLFKKIGAVLKVL], for which the MIC in experiment [2] is 4 µM (≈ 8.09 µg/mL); in experiment [28], 8 µM (≈ 16.2 µg/mL); in experiment [29], no less than 32 µM; in experiment [30], 8 µM (≈ 16.2 µg/mL).
